# Marks after values point to notes of the source that are not given here.
# System: healthy human subjects
# Assay: Blood glucose response in healthy human subjects
# Format: in vivo
# Conditions: 10 healthy human subjects
# Description: Samples containing 25 g (dsb) of the syrup were prepared as follows. 2.838 kg of filtered water was added to a jug containing a pre-weighed quantity of RCS. The lid was placed on the jug, and it was then mixed thoroughly by shaking and swirling until all syrup was dissolved. 12 oz. (350 g) of this solution contained 25 g of the test carbohydrate on a dry solids basis.
# The control solution was prepared by mixing 25 g anhydrous glucose with 300 mL of water.
# The samples were administered to 10 healthy human subjects. The characteristics of the subjects were: 5 male, 5 female; age, 35±10 y; body mass index, 24.0±3.8 kg/m^2. Each subject undertook nine tests on separate days which included the six test foods and on three occasions the standard glucose drink containing 25 g of available carbohydrate. Blood glucose was measured fasting and at 15, 30, 45, 60, 90 and 120 minutes after eating. Incremental areas under the blood glucose response curves (iAUC) were calculated. Each subject's iAUC after consumption of each test food was expressed as a percentage of the mean iAUC of the three glucose controls taken by the same subject. The incremental areas under the curve and relative glycemic response (RGR) of the products were: […]
smiles,measurement,setting,value
"OC[C@H]1OC(O)[C@H](O)[C@@H](O)[C@@H]1O (some centres unmarked) [Glucose, anhydrous glucose]",iAUC (incremental area under the blood glucose response curve),"25 g (dsb), blood glucose fasting to 120 minutes",124.4 ± 13.5^a
same,RGR (relative glycemic response),iAUC as percentage of mean iAUC of the three glucose controls of the same subject,100^a
